Results on ten compounds are retold here after the supplement of paper PMC8960247.

Each structure is given as a SMILES string. Counter-ions that a name gives are not always drawn. ± gives the standard error.

Assay [1] concerns 621-103 (TSC2-rescued). The assay is described as follows: relative viability vs DMSO; higher = less cytotoxic. Particulars: serum: 10% FBS, 72 h.
Assay [2] relates to 621-102 (TSC2-deficient). The description is as above. Particulars: serum: 10% FBS, 72 h.
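Further: immortalized renal angiomyolipoma cells stably carrying empty vector or TSC2, dosed in 384-well plates in DMEM, viability normalized to vehicle-treated wells within each plate.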

`CN1[C@@H]2CC[C@H]1C[C@@H](OC(=O)c1c[nH]c3ccccc13)C2` [Tropisetron HCl]: the relative viability in assay [1] (0.0001 µM) is 89.7 ± 3%; in assay [1] (0.001 µM), 96.7 ± 2.6%; in assay [1] (0.01 µM), 102 ± 2.4%; in assay [1] (0.1 µM) it was 95.48 ± 0.32%; in assay [1] (1 µM), 106.6 ± 0.86%; in assay [1] (10 µM) it was 84.7 ± 1.7%. The relative viability was found to be 82.2 ± 3.4% in assay [2] (0.0001 µM); 94 ± 3.9% in assay [2] (0.001 µM); 99.6 ± 3.9% in assay [2] (0.01 µM); 106 ± 2% in assay [2] (0.1 µM); 99.47 ± 0.15% in assay [2] (1 µM); 93.3 ± 1.3% in assay [2] (10 µM).

Take `C[C@]12CC[C@H]3[C@@H](CC[C@@]45O[C@@H]4C(O)=C(C#N)C[C@]35C)[C@@H]1CC[C@@H]2O` [Trilostane]: the relative viability in assay [1] (0.0001 µM) is 102 ± 1.8%; in assay [1] (0.001 µM) it was 106.6 ± 0.25%; in assay [1] (0.01 µM) it was 106.2 ± 0.28%; in assay [1] (0.1 µM) it was 101 ± 2.7%; in assay [1] (1 µM), 102.8 ± 0.34%; in assay [1] (10 µM) it was 100 ± 1.9%. For the same compound, the relative viability is 104 ± 4.1% in assay [2] (0.0001 µM); 94 ± 6% in assay [2] (0.001 µM); 93.7 ± 0.94% in assay [2] (0.01 µM); 101 ± 2.1% in assay [2] (0.1 µM); 98.3 ± 5.8% in assay [2] (1 µM); 99.2 ± 5% in assay [2] (10 µM).

On to `CNC(=O)CN1CCC(Oc2cc3c(Nc4cccc(Cl)c4F)ncnc3cc2OC)CC1` [AZD8931], for which the relative viability in assay [1] (0.0001 µM) came out at 102 ± 1.5%; in assay [1] (0.001 µM), 99.7 ± 2.3%; in assay [1] (0.01 µM) it was 101 ± 2.6%; in assay [1] (0.1 µM) it was 100.3 ± 0.18%; in assay [1] (1 µM), 99 ± 1.7%; in assay [1] (10 µM), 83.2 ± 3.3%. Moreover, the relative viability came to 106 ± 2.5% in assay [2] (0.0001 µM); 104 ± 3% in assay [2] (0.001 µM); 98.4 ± 2% in assay [2] (0.01 µM); 96.61 ± 0.73% in assay [2] (0.1 µM); 99.6 ± 2.1% in assay [2] (1 µM); 93.4 ± 4.9% in assay [2] (10 µM).

As to `Clc1cccc(Cl)c1NC1=NCCN1` [Clonidine HCl (Catapres)], the relative viability in assay [1] (0.0001 µM) was 96.4 ± 1.4%; in assay [1] (0.001 µM) it was 92.5 ± 0.96%; in assay [1] (0.01 µM), 93.1 ± 9.7%; in assay [1] (0.1 µM) it was 110 ± 0.19%; in assay [1] (1 µM), 113 ± 5.1%; in assay [1] (10 µM) it was 108 ± 1.1%. Also, the relative viability in assay [2] (0.0001 µM) was determined as 111 ± 5%; in assay [2] (0.001 µM) it was 110 ± 5.9%; in assay [2] (0.01 µM), 101 ± 1.1%; in assay [2] (0.1 µM) it was 104 ± 3.7%; in assay [2] (1 µM) it was 102.3 ± 0.16%; in assay [2] (10 µM), 104 ± 1.4%.

Turning to `N=C(N)NC(=N)N1CCOCC1` [Moroxydine], the relative viability in assay [1] (0.0001 µM) worked out at 87.36 ± 0.38%; in assay [1] (0.001 µM), 86.9 ± 5.6%; in assay [1] (0.01 µM), 96.1 ± 4.8%; in assay [1] (0.1 µM), 92.5 ± 0.95%; in assay [1] (1 µM), 92.6 ± 2.9%; in assay [1] (10 µM), 86.5 ± 2.3%. Moreover, the relative viability in assay [2] (0.0001 µM) is 109 ± 1.8%; in assay [2] (0.001 µM), 111 ± 1.4%; in assay [2] (0.01 µM), 111 ± 4.4%; in assay [2] (0.1 µM) it was 107 ± 1.3%; in assay [2] (1 µM) it was 109.9 ± 0.84%; in assay [2] (10 µM), 99.87 ± 0.55%.

Regarding `CNC(=O)Nc1ccc(-c2nc(N3CC4CCC(C3)O4)c3cnn(C4CCC5(CC4)OCCO5)c3n2)cc1`, the relative viability in assay [1] (0.0001 µM) was 108 ± 6.1%; in assay [1] (0.001 µM), 95.7 ± 2.1%; in assay [1] (0.01 µM), 73.8 ± 4.8%; in assay [1] (0.1 µM), 44.1 ± 1.1%; in assay [1] (1 µM), 34.1 ± 0.59%; in assay [1] (10 µM), 22 ± 0.064%. In addition, the relative viability in assay [2] (0.0001 µM) worked out at 97.36 ± 0.31%; in assay [2] (0.001 µM) it was 93.4 ± 2.7%; in assay [2] (0.01 µM) it was 76.3 ± 3.4%; in assay [2] (0.1 µM), 37.41 ± 0.17%; in assay [2] (1 µM) it was 25.6 ± 0.73%; in assay [2] (10 µM) it was 9.06 ± 0.58%.

As for `Clc1ccc(C(Cn2ccnc2)OCc2c(Cl)cccc2Cl)c(Cl)c1` (stereo not given) [Isoconazole], the relative viability in assay [1] (0.0001 µM) was found to be 104 ± 2.4%; in assay [1] (0.001 µM), 109 ± 4%; in assay [1] (0.01 µM), 105 ± 1%; in assay [1] (0.1 µM) it was 103.2 ± 0.24%; in assay [1] (1 µM), 108 ± 1.4%; in assay [1] (10 µM), 95.32 ± 0.49%. Moreover, the relative viability was determined as 104 ± 1.2% in assay [2] (0.0001 µM); 107 ± 2.4% in assay [2] (0.001 µM); 86.81 ± 0.67% in assay [2] (0.01 µM); 108.4 ± 0.37% in assay [2] (0.1 µM); 107 ± 1.4% in assay [2] (1 µM); 100 ± 4.3% in assay [2] (10 µM).

With `CC(=O)O[C@H]1C(=O)[C@@]2(C)[C@H]([C@H](OC(=O)c3ccccc3)[C@]3(O)C[C@H](OC(=O)[C@H](O)[C@@H](NC(=O)c4ccccc4)c4ccccc4)C(C)=C1C3(C)C)[C@]1(OC(C)=O)CO[C@@H]1C[C@@H]2O` [Paclitaxel], the relative viability came to 69 ± 1.5% in assay [1] (0.0001 µM); 59.3 ± 0.96% in assay [1] (0.001 µM); 40.8 ± 0.42% in assay [1] (0.01 µM); 34.5 ± 0.39% in assay [1] (0.1 µM); 28.7 ± 0.81% in assay [1] (1 µM); 42.3 ± 0.75% in assay [1] (10 µM). The relative viability in assay [2] (0.0001 µM) is 54.2 ± 1.8%; in assay [2] (0.001 µM), 46.8 ± 2.3%; in assay [2] (0.01 µM), 33.66 ± 0.22%; in assay [2] (0.1 µM), 33.1 ± 0.46%; in assay [2] (1 µM) it was 29.6 ± 1.3%; in assay [2] (10 µM), 31.1 ± 2.3%.

On to `Nc1ccn([C@H]2CC[C@@H](CO)O2)c(=O)n1` [Zalcitabine], for which the relative viability was found to be 90.4 ± 5.7% in assay [1] (0.0001 µM); 95.48 ± 0.79% in assay [1] (0.001 µM); 105 ± 1.1% in assay [1] (0.01 µM); 105 ± 4.4% in assay [1] (0.1 µM); 100.4 ± 0.83% in assay [1] (1 µM); 102 ± 1.8% in assay [1] (10 µM). For the same compound, the relative viability came out at 92.2 ± 0.98% in assay [2] (0.0001 µM); 99.9 ± 1.3% in assay [2] (0.001 µM); 94.1 ± 2.3% in assay [2] (0.01 µM); 103.3 ± 0.81% in assay [2] (0.1 µM); 102 ± 3.1% in assay [2] (1 µM); 93.26 ± 0.69% in assay [2] (10 µM).

For `O=C(NOCC1CC1)c1ccc(F)c(F)c1Nc1ccc(I)cc1Cl`, the relative viability in assay [1] (0.0001 µM) is 97.56 ± 0.82%; in assay [1] (0.001 µM), 92.3 ± 5.6%; in assay [1] (0.01 µM), 98.9 ± 2.7%; in assay [1] (0.1 µM), 99.9 ± 2.7%; in assay [1] (1 µM), 96.7 ± 3.3%; in assay [1] (10 µM) it was 74.9 ± 1.4%. Further, the relative viability in assay [2] (0.0001 µM) amounted to 101 ± 2.5%; in assay [2] (0.001 µM) it was 98 ± 1.2%; in assay [2] (0.01 µM), 104 ± 1.8%; in assay [2] (0.1 µM), 97.3 ± 1.5%; in assay [2] (1 µM), 98.4 ± 1.5%; in assay [2] (10 µM), 81.4 ± 0.87%.
